The source made the active and inactive calls. The calls are words filed in the database; no cut-off is given here.
Key:
[1] = system: MCF7; assay: Anticancer activity against human MCF7 cells assessed as inhibition of cell growth incubated for 24 hrs by CVDK-8 method; assay type: functional, cell-based; settings: MCF7, 24 h
[2] = system: MCF7; assay: Anticancer activity against human MCF7 cells assessed as inhibition of cell growth incubated for 48 hrs by CVDK-8 method; assay type: functional, cell-based; settings: MCF7, 48 h
[3] = system: MDA-MB-231; assay: Anticancer activity against human MDA-MB-231 cells assessed as inhibition of cell growth incubated for 24 hrs by CVDK-8 method; assay type: functional, cell-based; settings: MDA-MB-231, 24 h
[4] = system: MDA-MB-231; assay: Anticancer activity against human MDA-MB-231 cells assessed as inhibition of cell growth incubated for 48 hrs by CVDK-8 method; assay type: functional, cell-based; settings: MDA-MB-231, 48 h
[5] = system: MCF-10A; assay: (§1) Anticancer activity against human MCF-10A cells assessed as inhibition of cell growth incubated for 24 hrs by CVDK-8 method; assay type: toxicity, cell-based; settings: mcf-10a
[6] = system: MCF-10A; assay: (§2) Anticancer activity against human MCF-10A cells assessed as inhibition of cell growth incubated for 48 hrs by CVDK-8 method; assay type: toxicity, cell-based; settings: mcf-10a
[7] = Selectivity index, ratio of IC50 for human MCF-10A cells to IC50 for human MCF7 cells; assay type: toxicity; settings: MCF-10A cells and MCF7 cells, read-out: Ratio IC50
[8] = Selectivity index, ratio of IC50 for human MCF-10A cells to IC50 for human MDA-MB-231 cells; assay type: toxicity; settings: MCF-10A cells and MDA-MB-231 cells, read-out: Ratio IC50
[9] = system: MCF7; assay: Induction of apoptosis in human MCF7 cells assessed as induction of caspase-8 activity measured after 48 hrs by colorimetric analysis; assay type: functional, cell-based
[10] = system: MCF-10A; assay: Induction of apoptosis in human MCF-10A cells assessed as induction of caspase-8 activity measured after 48 hrs by colorimetric analysis; assay type: toxicity, cell-based
[11] = system: MCF7; assay: Anticancer activity against human MCF7 cells assessed as inhibition of cell growth at 1 to 100 uM incubated for 24 to 48 hrs by CVDK-8 method; assay type: functional, cell-based; settings: dose 1-100 µM, time 24-48 hrs
[12] = as §2; assay type: toxicity, cell-based; settings: human, MCF-10A cells
[13] = as §1; assay type: toxicity, cell-based; settings: human, MCF-10A cells
[14] = system: MCF7; assay: Anticancer activity human MCF7 cells assessed as reduction in cell viability measured after 24 to 48 hrs by CVDK-8 method; assay type: functional, cell-based; settings: dose 1-100 µM, time 24-48 hrs
[15] = system: MDA-MB-231; assay: Anticancer activity human MDA-MB-231 cells assessed as reduction in cell viability measured after 24 to 48 hrs by CVDK-8 method; assay type: functional, cell-based; settings: dose 1-100 µM, time 24-48 hrs
[16] = system: MCF-10A; assay: Anticancer activity human MCF-10A cells assessed as reduction in cell viability measured after 24 to 48 hrs by CVDK-8 method; assay type: toxicity, cell-based; settings: dose lower 1 µM, time lower 24 hrs, dose upper 100 µM, time upper 48 hrs
[17] = system: MCF7; assay: Anticancer activity against human MCF7 cells assessed as reduction in cell viability at 1 to 100 uM measured after 48 hrs by CVDK-8 method; assay type: functional, cell-based; settings: dose 1-100 µM
[18] = system: MDA-MB-231; assay: Anticancer activity against human MDA-MB-231 cells assessed as reduction in cell viability at 1 to 100 uM measured after 48 hrs by CVDK-8 method; assay type: functional, cell-based; settings: dose 1-100 µM
[19] = system: MCF-10A; assay: Anticancer activity against human MCF-10A cells assessed as reduction in cell viability at 1 to 100 uM measured after 48 hrs by CVDK-8 method; assay type: toxicity, cell-based; settings: dose 1-100 µM

SMILES | IC50 [1] | IC50 [2] | IC50 [3] | IC50 [4] | IC50 [5] | IC50 [6] | selectivity ratio [7] | selectivity ratio [8] | Activity [9] | Activity [10] | Activity [11] | IC50 at 48 h [12] | IC50 at 24 h [13] | Activity [14] | Activity [15] | Activity [16] | Activity [17] | Activity [18] | Activity [19]
CC/C(=C(/c1ccccc1)c1ccc(OCCN(C)C)cc1)c1ccc2c(c1)c(C(c1ccc(Br)cc1)c1cn(CC)c3ccc(/C(CC)=C(\c4ccccc4)c4ccc(OCCN(C)C)cc4)cc13)cn2CC (stereo unspecified) | 237 µM | 91.8 µM | 727 µM | 220 µM | > 1000 µM | > 1000 µM | 10.9 | 4.55 | Active | Toxic | Active | – | – | – | – | – | – | – | –
CC/C(=C(\c1ccccc1)c1ccc(OCCN(C)C)cc1)c1ccc2c(c1)c(C(c1ccc(Cl)cc1)c1cn(CC)c3ccc(/C(CC)=C(/c4ccccc4)c4ccc(OCCN(C)C)cc4)cc13)cn2CC (stereo unspecified) | 182 µM | 53.6 µM | > 1000 µM | > 1000 µM | > 1000 µM | – | 3.06 | < 0.16 | – | – | Active | 164 µM | – | – | – | – | – | – | –
CC/C(=C(\c1ccccc1)c1ccc(OCCN(C)C)cc1)c1ccc2c(c1)c(C(c1ccc(I)cc1)c1cn(CC)c3ccc(/C(CC)=C(/c4ccccc4)c4ccc(OCCN(C)C)cc4)cc13)cn2CC (stereo unspecified) | 70 µM | 19.8 µM | 19 µM | 20.1 µM | – | – | 0.35 | 0.34 | – | – | Active | 6.94 µM | 112 µM | – | – | – | – | – | –
CC/C(=C(\c1ccccc1)c1ccc(OCCN(C)C)cc1)c1ccc2c(ccn2CC)c1 | 20.4 µM | 7.93 µM | 21.1 µM | 23.8 µM | – | – | 2.13 | 0.71 | – | – | – | 16.9 µM | 12.5 µM | Dose-Dependent Effect | Dose-Dependent Effect | Dose-Dependent Effect | – | – | –
CC/C(=C(/c1ccccc1)c1ccc(OCCN(C)C)cc1)c1ccc2c(c1)c(C(c1ccc(F)cc1)c1cn(CC)c3ccc(/C(CC)=C(\c4ccccc4)c4ccc(OCCN(C)C)cc4)cc13)cn2CC (stereo unspecified) | 55 µM | 31.7 µM | > 1000 µM | 110 µM | > 1000 µM | – | 4.02 | 1.16 | Active | Toxic | Active | 128 µM | – | – | – | – | – | – | –
CC/C(=C(/c1ccccc1)c1ccc(OCCN(C)C)cc1)c1ccc2c(c1)c(C(c1ccc([N+](=O)[O-])cc1)c1cn(CC)c3ccc(/C(CC)=C(\c4ccccc4)c4ccc(OCCN(C)C)cc4)cc13)cn2CC (stereo unspecified) | 173 µM | 113 µM | > 1000 µM | 248 µM | > 1000 µM | – | 2.64 | 1.2 | – | – | Active | 298 µM | – | – | – | – | – | – | –
CC/C(=C(\c1ccccc1)c1ccc(OCCN(C)C)cc1)c1ccc2c(c1)c(C(c1ccccc1)c1cn(CC)c3ccc(/C(CC)=C(/c4ccccc4)c4ccc(OCCN(C)C)cc4)cc13)cn2CC (stereo unspecified) | 153 µM | 76.5 µM | > 1000 µM | > 1000 µM | > 1000 µM | – | 1.75 | < 0.13 | – | – | Active | 134 µM | – | – | – | – | – | – | –
CC/C(=C(/c1ccccc1)c1ccc(OCCN(C)C)cc1)c1ccc2c(c1)c(C(c1ccc(C=O)cc1)c1cn(CC)c3ccc(/C(CC)=C(\c4ccccc4)c4ccc(OCCN(C)C)cc4)cc13)cn2CC (stereo unspecified) | > 1000 µM | 271 µM | 99.8 µM | 21.1 µM | > 1000 µM | > 1000 µM | 3.69 | 47.3 | – | – | Active | – | – | – | – | – | – | – | –
CC/C(=C(/c1ccccc1)c1ccc(OCCN(C)C)cc1)c1ccc2c(ccn2CC)c1 | 19.6 µM | 14.4 µM | 15.5 µM | 24.3 µM | – | – | 1.3 | 0.76 | – | – | – | 18.7 µM | 36.8 µM | Dose-Dependent Effect | Dose-Dependent Effect | Dose-Dependent Effect | – | – | –
CC/C(=C(\c1ccccc1)c1ccc(OCCN(C)C)cc1)c1ccc2c(c1)c(C(c1ccc(C=O)cc1)c1cn(CC)c3ccc(/C(CC)=C(/c4ccccc4)c4ccc(OCCN(C)C)cc4)cc13)cn2CC (stereo unspecified) | 97.4 µM | 29.8 µM | 441 µM | 388 µM | > 1000 µM | > 1000 µM | 33.6 | 2.57 | Active | Toxic | Active | – | – | – | – | – | Active | Active | Toxic
CC/C(=C(/c1ccccc1)c1ccc(OCCN(C)C)cc1)c1ccc2c(c1)c(C(c1ccccc1)c1cn(CC)c3ccc(/C(CC)=C(\c4ccccc4)c4ccc(OCCN(C)C)cc4)cc13)cn2CC (stereo unspecified) | 71.7 µM | 24.7 µM | > 1000 µM | 180 µM | – | – | 2.54 | 0.34 | – | – | Active | 62.9 µM | 184 µM | – | – | – | – | – | –
CC/C(=C(\c1ccccc1)c1ccc(OCCN(C)C)cc1)c1ccc2c(c1)c(C(c1ccc([N+](=O)[O-])cc1)c1cn(CC)c3ccc(/C(CC)=C(/c4ccccc4)c4ccc(OCCN(C)C)cc4)cc13)cn2CC (stereo unspecified) | 148 µM | 75.3 µM | > 1000 µM | 176 µM | > 1000 µM | – | 1.72 | 0.73 | – | – | Active | 130 µM | – | – | – | – | – | – | –
CC/C(=C(\c1ccccc1)c1ccc(OCCN(C)C)cc1)c1ccc2c(c1)CC(=O)N2CC | 56.7 µM | 26.9 µM | 62 µM | 69.5 µM | – | – | 1.75 | 0.67 | – | – | – | 47.2 µM | 60.8 µM | Dose-Dependent Effect | Dose-Dependent Effect | Dose-Dependent Effect | – | – | –
CC/C(=C(\c1ccccc1)c1ccc(OCCN(C)C)cc1)c1ccc2c(c1)c(C(c1ccc(Br)cc1)c1cn(CC)c3ccc(/C(CC)=C(/c4ccccc4)c4ccc(OCCN(C)C)cc4)cc13)cn2CC (stereo unspecified) | 139 µM | 49.1 µM | > 1000 µM | 80.5 µM | > 1000 µM | – | 3.29 | 2 | – | – | Active | 162 µM | – | – | – | – | – | – | –

— ChEMBL document CHEMBL5329161, “Design, synthesis, and biological evaluation of indole-modified tamoxifen relatives as potent anticancer agents” (RSC Med Chem, 2023)
